Read-outs that look alike come from different tables or passages of the source.
What was measured:
[1] = biological target: human Fatty Acid Amide Hydrolase (FAAH) (Homo sapiens (Human), UniProt O00519); test: biochemical
[2] = biological target: rat Fatty Acid Amide Hydrolase (FAAH) (Rattus norvegicus (Rat), UniProt P97612); test: FAAH in vitro fluorescence assay (AAMCA hydrolysis), rat enzyme; format: biochemical; conditions: for rFAAH % inhibition at 100 nM / inhibition at 0.1 µM: 100 nM (tier I); for inhibition at 0.1 µM: read-out: rFAAH % inhibition at 100 nM
rat Fatty Acid Amide Hydrolase (FAAH), sequence (P97612 30-579): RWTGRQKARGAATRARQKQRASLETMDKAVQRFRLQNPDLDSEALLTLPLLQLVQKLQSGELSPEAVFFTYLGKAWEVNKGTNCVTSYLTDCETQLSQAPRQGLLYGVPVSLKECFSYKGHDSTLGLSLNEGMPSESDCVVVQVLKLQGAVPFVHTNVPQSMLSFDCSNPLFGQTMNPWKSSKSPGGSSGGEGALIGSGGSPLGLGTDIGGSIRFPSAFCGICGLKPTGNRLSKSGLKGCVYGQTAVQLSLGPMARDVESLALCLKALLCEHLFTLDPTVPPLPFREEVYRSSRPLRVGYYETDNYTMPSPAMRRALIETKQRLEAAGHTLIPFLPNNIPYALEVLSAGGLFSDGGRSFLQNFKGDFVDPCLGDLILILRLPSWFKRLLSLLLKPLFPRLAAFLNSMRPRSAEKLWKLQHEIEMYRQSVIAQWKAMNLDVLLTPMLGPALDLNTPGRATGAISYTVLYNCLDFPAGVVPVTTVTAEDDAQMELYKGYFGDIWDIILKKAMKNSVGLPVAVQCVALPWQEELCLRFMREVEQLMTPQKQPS
Experimental: Material and Reagents: All reagents were purchased from Sigma-Aldrich unless specified. […] Chaperone protein groEL-groES in pGRO7 plasmid (Takara Bio Inc, Japan) was co-expressed with Fatty Acid Amide Hydrolase (FAAH) to improve solubility of the protein expressed in E coli. […] Briefly, the bacterial cultures in Luria Broth (2 L) were induced with arabinose (2 mM) and Isopropyl (β-D-1-thiogalactopyranoside, IPTG (1 mM), for 20 h at room temperature. The cultures were centrifuged at 1200×g for 10 min and the cell pellet was resuspended in 100 mL buffer containing of 20 mM NaPi (pH 7.4), 100 mM NaCl, Benzonase (500u), Aprotinin (1 μg/mL) and Leupeptin (1 μg/mL). Cells were lyzed by sonication (Amp 20%, Pulse 15 s×15, on ice) and the cell debris removed by centrifugation at 5000×g for 20 min. The supernatant was enriched via ultracentrifugation at 100,000×g for 1 h and the cell pellet was resuspended in 16 mL buffer containing 20 mM NaPi (pH 7.8), 500 mM NaCl, 1% Triton X-100. The resuspended cell extract was subjected to ultra-centrifugation at 100,000×g for 1 h and the enriched supernatant was used in the in vitro assay. All protein extraction steps were carried out on ice or at 4° C.
The assay was carried out in 200 μL volume in a 96-well black polystyrene plate (Greiner Bio-one, Germany). Each reaction consisted of human Fatty Acid Amide Hydrolase (FAAH) protein and 10 μM AAMCA in assay buffer containing 50 mM HEPES, 1 mM EDTA and 0.1% BSA, pH 7.4. The reaction was incubated with 2 μL of varying concentrations of inhibitor in DMSO (final concentration of DMSO 1%) with shaking for 1 min and monitored for increase in fluorescence in kinetic mode for 50 min. […] Rate of reaction as a function of the concentration of the inhibitor was used to determine the IC50 of the inhibitors. Data was analyzed using GraphPad Prism 5 (GraphPad Software Inc., San Diego, Calif.). The activity of the compounds for rat Fatty Acid Amide Hydrolase (FAAH) was evaluated as described above with rat Fatty Acid Amide Hydrolase (FAAH) protein and 10 μM AAMCA substrate.

[3] = human FAAH, read-out: hFAAH IC50

human Fatty Acid Amide Hydrolase (FAAH), sequence (O00519 30-579): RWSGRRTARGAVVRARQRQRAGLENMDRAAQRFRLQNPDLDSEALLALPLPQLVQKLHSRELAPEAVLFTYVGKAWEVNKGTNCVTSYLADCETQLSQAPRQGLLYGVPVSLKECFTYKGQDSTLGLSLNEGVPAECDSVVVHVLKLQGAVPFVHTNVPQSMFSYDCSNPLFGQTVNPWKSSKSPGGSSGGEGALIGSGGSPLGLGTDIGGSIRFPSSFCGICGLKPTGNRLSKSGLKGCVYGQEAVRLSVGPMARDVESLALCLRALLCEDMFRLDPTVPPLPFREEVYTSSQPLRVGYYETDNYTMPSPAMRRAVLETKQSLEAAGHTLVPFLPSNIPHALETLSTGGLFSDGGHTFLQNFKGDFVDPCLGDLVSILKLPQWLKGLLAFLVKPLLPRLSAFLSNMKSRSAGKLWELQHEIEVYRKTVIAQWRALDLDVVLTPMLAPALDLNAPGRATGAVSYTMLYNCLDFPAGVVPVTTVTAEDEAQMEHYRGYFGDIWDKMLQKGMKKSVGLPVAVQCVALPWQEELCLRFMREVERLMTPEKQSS

| Structure (SMILES) | IC50 ([1]; read-out: hFAAH IC50) [nM] | IC50 [1, 3] [nM] | IC50 ([2]; rat FAAH, read-out: rFAAH IC50) [nM] | further results |
| --- | --- | --- | --- | --- |
| Nc1ccc(C(=O)NC2CCC(=Cc3cccc(Oc4ccc(C(F)(F)F)cn4)c3)CC2)cn1 (single isomer, unassigned; (+)) [Example 20.A-3, (+)-6-Amino-N-[4-[[3-[[5-(trifluoromethyl)-2-pyridyl]oxy]phenyl]methylene]cyclohexyl]pyridine-3-carboxamide] | 361 |  |  | inhibition at 10 µM ([2]; read-out: rFAAH % inhibition at 10 uM, rat FAAH, 10 uM): 70% |
| O=C(NC1CCC(=Cc2cccc(Oc3ccc(C(F)(F)F)cn3)c2)CC1)c1ccc(-c2cc[nH]n2)nc1 (stereo not drawn) [Example 2.B-4, 6-(1H-Pyrazol-3-yl)-N-[4-[[3-[[5-(trifluoromethyl)-2-pyridyl]oxy]phenyl]methylene]cyclohexyl]pyridine-3-carboxamide] |  | 2 | 11 |  |
| Cc1cc(C(=O)NC2CCC(=Cc3cccc(Oc4ccc(Cl)c(C)n4)c3)CC2)cnc1N (stereo not drawn) [Example 2.E-25, 6-Amino-N-[4-[[3-[(5-chloro-6-methyl-2-pyridyl)oxy]phenyl]methylene]cyclohexyl]-5-methyl-pyridine-3-carboxamide] |  | 7 | 32 |  |
| O=C(NC1CCC(=Cc2cccc(Oc3ccc(C(F)(F)F)cn3)c2)CC1)c1c[nH]c2ccccc12 (single isomer, unassigned; (-)) [Example 20.A-18, (−)-N-[4-[[3-[[5-(trifluoromethyl)-2-pyridyl]oxy]phenyl]methylene]cyclohexyl]-1H-indole-3-carboxamide] |  | 4 |  | IC50 [2]: 35 nM |
| Cc1nnc(C(=O)NC2CCC(=Cc3cccc(Oc4ccc(C(F)(F)F)cn4)c3)CC2)o1 (stereo not drawn) [Example 2.A-20, 5-Methyl-N-[4-[[3-[[5-(trifluoromethyl)-2-pyridyl]oxy]phenyl]methylene]cyclohexyl]-1,3,4-oxadiazole-2-carboxamide] |  | 334 |  | rFAAH % inhibition at 100 nM ([2]; rat FAAH): No inhibition at 100 nM |
| O=C(NC1CCC(=Cc2cccc(Oc3ccc(C(F)(F)F)cn3)c2)CC1)c1cnc2[nH]ccc2c1 (single isomer, unassigned; (-)) [Example 20.A-14, (−)-N-[4-[[3-[[5-(trifluoromethyl)-2-pyridyl]oxy]phenyl]methylene]cyclohexyl]-1H-pyrrolo[2,3-b]pyridine-5-carboxamide] | 1 |  | 8.6 |  |
| O=C(NC1CCC(=Cc2cccc(Oc3ccc(C(F)(F)F)cn3)c2)CC1)c1cccnc1F (stereo not drawn) [Example 2.A-26, 2-Fluoro-N-[4-[[3-[[5-(trifluoromethyl)-2-pyridyl]oxy]phenyl]methylene]cyclohexyl]pyridine-3-carboxamide] | 5 |  | 84 |  |
| O=C(NC1CCC(=Cc2cccc(Oc3ccc(C(F)(F)F)cn3)c2)CC1)c1ccc(-n2ccnn2)nc1 (stereo not drawn) [Example 2.B-14, 6-(Triazol-1-yl)-N-[4-[[3-[[5-(trifluoromethyl)-2-pyridyl]oxy]phenyl]methylene]cyclohexyl]pyridine-3-carboxamide] | 2 |  | 11 |  |
| O=C(O)c1cnn(-c2ccc(C(=O)NC3CCC(=Cc4cccc(Oc5ccc(C(F)(F)F)cn5)c4)CC3)cn2)c1 (stereo not drawn) [Example 8.A-4, 1-[5-[[4-[[3-[[5-(Trifluoromethyl)-2-pyridyl]oxy]phenyl]methylene]cyclohexyl]carbamoyl]-2-pyridyl]pyrazole-4-carboxylic acid] |  |  |  | IC50 ([1]; hFAAH IC50): 27 nM; inhibition at 0.1 µM ([2]; rat FAAH): 15% |
| O=C(NC1CCC(=Cc2cccc(Oc3ccc(C(F)(F)F)cn3)c2)CC1)c1cccnc1Cl (stereo not drawn) [Example 2.A-25, 2-Chloro-N-[4-[[3-[[5-(trifluoromethyl)-2-pyridyl]oxy]phenyl]methylene]cyclohexyl]pyridine-3-carboxamide] | 16 |  |  | rFAAH % inhibition at 100 nM ([2]; rat FAAH): No inh at 100 nM |
| O=C(NC1CCC(=Cc2cccc(Oc3ccc(C(F)(F)F)cn3)c2)CC1)c1ccc(-n2cccn2)nc1 (stereo not drawn) [Example 5.A-6, 6-Pyrazol-1-yl-N-[4-[[3-[[5-(trifluoromemyl)-2-pyridyl]oxy]phenyl]methylene]cyclohexyl]pyridine-3-carboxamide] | 7 |  | 7 |  |
| Cc1cnn(-c2ccc(C(=O)NC3CCC(=Cc4cccc(Oc5ccc(C(F)(F)F)cn5)c4)CC3)cn2)c1 (stereo not drawn) [Example 2.B-6, 6-(4-Methylpyrazol-1-yl)-N-[4-[[3-[[5-(trifluoromethyl)-2-pyridyl]oxy]phenyl]methylene]cyclohexyl]pyridine-3-carboxamide] |  | 7 | 21 |  |
| Cc1nc(Oc2cccc(C=C3CCC(NC(=O)c4ccc(N)nc4)CC3)c2)ccc1Cl (stereo not drawn) [Example 2.E-16, 6-Amino-N-[4-[[3-[(5-chloro-6-methyl-2-pyridyl)oxy]phenyl]methylene]cyclohexyl]pyridine-3-carboxamide] |  | 3 | 24 |  |
| O=C(NC1CCC(=Cc2cccc(Oc3ccc(C(F)(F)F)cn3)c2)CC1)c1cnccn1 (stereo not drawn) [Example 2.A-5, N-[4-[[3-[[5-(Trifluoromethyl)-2-pyridyl]oxy]phenyl]methylene]cyclohexyl]pyrazine-2-carboxamide] |  | 9 |  | inhibition at 0.1 µM ([2]; rat FAAH): 27% |
| COc1ccc(C(=O)NC2CCC(=Cc3cccc(Oc4ccc(C(F)(F)F)cn4)c3)CC2)cn1 (stereo not drawn) [Example 2.C-2, 6-Methoxy-N-[4-[[3-[[5-(trifluoromethyl)-2-pyridyl]oxy]phenyl]methylene]cyclohexyl]pyridine-3-carboxamide] | 5 |  | 21 |  |
| CCOc1ccc(C(=O)NC2CCC(=Cc3cccc(Oc4ccc(C(F)(F)F)cn4)c3)CC2)cn1 (stereo not drawn) [Example 6.1, 6-Ethoxy-N-[4-[[3-[[5-(trifluoromethyl)-2-pyridyl]oxy]phenyl]-methylene]cyclohexyl]pyridine-3-carboxamide] |  | 10 | 8 |  |
| Cc1nc(Oc2cccc(C=C3CCC(NC(=O)c4cnc(N)nc4)CC3)c2)ccc1C(F)(F)F (stereo not drawn) [Example 2.E-22, 2-Amino-N-[4-[[3-[[6-methyl-5-(trifluoromethyl)-2-pyridyl]oxy]phenyl]methylene]cyclohexyl]pyrimidine-5-carboxamide] |  | 2 | 21 |  |
| O=C(NC1CCC(=Cc2cccc(Oc3ccc(C(F)(F)F)cn3)c2)CC1)c1ccc(-c2cn[nH]c2)nc1 (stereo not drawn) [Example 2.B-5, 6-(1H-Pyrazol-4-yl)-N-[4-[[3-[[5-(trifluoromethyl)-2-pyridyl]oxy]phenyl]methylene]cyclohexyl]pyridine-3-carboxamide] |  | 2 | 9 |  |
| O=C(NC1CCC(=Cc2cccc(Oc3ccc(C(F)(F)F)cn3)c2)CC1)c1ccc(C(F)(F)F)nc1 (stereo not drawn) [Example 2.A-6, 6-(Trifluoromethyl)-N-[4-[[3-[[5-(trifluoromethyl)-2-pyridyl]oxy]phenyl]methylene]cyclohexyl]pyridine-3-carboxamide] |  | 102 |  | inhibition at 0.1 µM ([2]; rat FAAH): 37% |
| O=C(O)Cn1cc(-c2ccc(C(=O)NC3CCC(=Cc4cccc(Oc5ccc(C(F)(F)F)cn5)c4)CC3)cn2)cn1 (stereo not drawn) [Example 8.A-1, 2-[4-[5-[[4-[[3-[[5-(Trifluoromethyl)-2-pyridyl]oxy]phenyl]methylene]cyclohexyl]carbamoyl]-2-pyridyl]pyrazol-1-yl]acetic acid] |  |  |  | inhibition at 0.1 µM ([1]; read-out: hFAAH % inhibition at 100 nM, human FAAH, 100 nM (tier I)): 72%; inhibition at 0.1 µM ([2]; rat FAAH): 15% |
| O=C(NC1CCC(=Cc2cccc(Oc3ccc(C(F)(F)F)cn3)c2)CC1)c1c[nH]nc1C(F)(F)F (stereo not drawn) [Example 2.A-29, 3-(Trifluoromethyl)-N-[4-[[3-[[5-(trifluoromethyl)-2-pyridyl]oxy]phenyl]methylene]cyclohexyl]-1H-pyrazole-4-carboxamide] | 3 |  | 24 |  |
| Nc1ncc(C(=O)NC2CCC(=Cc3cccc(Oc4ccc(C(F)(F)F)cn4)c3)CC2)cn1 (stereo not drawn) [Example 2.C-6, 2-Amino-N-[4-[[3-[[5-(trifluoromethyl)-2-pyridyl]oxy]phenyl]methylene]cyclohexyl]pyrimidine-5-carboxamide] | 1 |  | 16 |  |
| O=C(NC1CCC(=Cc2cccc(Oc3ccc(C(F)(F)F)cn3)c2)CC1)c1ccc(F)nc1 (stereo not drawn) [Example 2.A-14, 6-Fluoro-N-[4-[[3-[[5-(trifluoromethyl)-2-pyridyl]oxy]phenyl]methylene]cyclohexyl]pyridine-3-carboxamide] | 10 |  |  | inhibition at 0.1 µM ([2]; rat FAAH): 25% |
| Cc1ccn(-c2ccc(C(=O)NC3CCC(=Cc4cccc(Oc5ccc(C(F)(F)F)cn5)c4)CC3)cn2)n1 (stereo not drawn) [Example 2.B-9, 6-(3 -Methylpyrazol-1-yl)-N-[4-[[3-[[5-(trifluoromethyl)-2-pyridyl]oxy]phenyl]methylene]cyclohexyl]pyridine-3-carboxamide] |  | 9 | 22 |  |
